The test system of the first experiment is Lox-IMVI melanoma cell line. The experiment can be described thus: Lox-IMVI anti-proliferative assay (growth inhibition, Cell Titer-Glo). The experiment is classed as cell-based, human. The conditions noted are these: Homo sapiens; IC50 activity level in the cell-based Lox-IMVI anti-proliferative assay; read-out: Activity. The gist of the method: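 Luminescence from cellular ATP measured viability at compound addition and again after 72 h of exposure (37 °C, 5% CO2, RPMI + 10% FBS). Doses spanned 0.5 nM to 10 μM in ten 3-fold steps with 0.2% DMSO. Values were fitted as % of DMSO-treated cells by sigmoidal dose-response.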
On the technique in general: ATP-based viability assays read luminescence as a measure of living cells.
For the compound `NC(=O)[C@H]1CC[C@@H](n2c(Nc3c(F)cc(F)cc3F)nc3cnc(N[C@H]4CCC[C@@H]4O)nc32)CC1` [Example 266, (1R,4s)-4-(2-((1S,2S)-2-hydroxycyclopentylamino)-8-(2,4,6-trifluorophenylamino)-9H-purin-9-yl)cyclohexanecarboxamide], the IC50 is > 1000 nM. The same measure, in the same setting: to `NC(=O)[C@H]1CC[C@@H](n2c(Nc3c(Cl)cc(Cl)cc3Cl)nc3cnc(N[C@@H]4CCC[C@H]4O)nc32)CC1` [Example 254, (1S,4s)-4-(2-((1R,2R)-2-hydroxycyclopentylamino)-8-(2,4,6-trichlorophenylamino)-9H-purin-9-yl)cyclohexanecarboxamide] belongs 500 to 1000 nM; to `CS(=O)(=O)N1CCC(Nc2ncc3nc(Nc4ccc(Cl)cc4Cl)n([C@H]4CC[C@@H](C(N)=O)CC4)c3n2)CC1` [Example 299, (1s,4s)-4-(8-(2,4-dichlorophenylamino)-2-(1-(methylsulfonyl)piperidin-4-ylamino)-9H-purin-9-yl)cyclohexanecarboxamide], > 1000 nM; to `C[C@H](CO)Nc1ncc2nc(Nc3c(F)cc(F)cc3Cl)n([C@H]3CC[C@@H](C(N)=O)CC3)c2n1` [Example 134, (1S,4s)-4-(8-(2-chloro-4,6-difluorophenylamino)-2-((R)-1-hydroxypropan-2-ylamino)-9H-purin-9-yl)cyclohexanecarboxamide], > 1000 nM. Same read-out and setting: then `NC(=O)[C@H]1CC[C@@H](n2c(Nc3c(Cl)cc(F)cc3Cl)nc3cnc(NC4CCC4)nc32)CC1` [Example 118, (1s,4s)-4-(2-(cyclobutylamino)-8-(2,6-dichloro-4-fluorophenylamino)-9H-purin-9-yl)cyclohexanecarboxamide], with 500 to 1000 nM; and `NC(=O)[C@H]1CC[C@@H](n2c(Nc3cc(F)c(Cl)cc3F)nc3cnc(N[C@@H]4CCC[C@H]4O)nc32)CC1` [Example 265, (1S,4s)-4-(8-(4-chloro-2,5-difluorophenylamino)-2-((1R,2R)-2-hydroxycyclopentylamino)-9H-purin-9-yl)cyclohexanecarboxamide], with > 1000 nM; and `NC(=O)[C@H]1CC[C@@H](n2c(Nc3c(F)cc(F)cc3Cl)nc3cnc(NC4CC(F)(F)C4)nc32)CC1` [Example 228, (1s,4s)-4-(8-(2-chloro-4,6-difluorophenylamino)-2-(3,3-difluorocyclobutylamino)-9H-purin-9-yl)cyclohexanecarboxamide], with 500 to 1000 nM. Same read-out and setting: to `C[C@@H](O)CNc1ncc2nc(Nc3c(Cl)cc(Cl)cc3Cl)n([C@H]3CC[C@@H](C(N)=O)CC3)c2n1` [Example 152, (1S,4s)-4-(2-((R)-2-hydroxypropylamino)-8-(2,4,6-trichlorophenylamino)-9H-purin-9-yl)cyclohexanecarboxamide] belongs > 1000 nM.

Still in this experiment, the particulars now being: Homo sapiens; Lox-IMVI anti-proliferative assay, IC50 activity level; read-out: Activity.
Consider `C[C@@H](CO)Nc1ncc2nc(Nc3c(Cl)cc(Cl)cc3Cl)n([C@H]3CC[C@](C)(C(N)=O)CC3)c2n1` [Example 481, (1S,4r)-4-(2-((S)-1-hydroxypropan-2-ylamino)-8-(2,4,6-trichlorophenylamino)-9H-purin-9-yl)-1-methylcyclohexanecarboxamide], for which the IC50 is > 1000 nM. Still for that read-out and setting: then `C[C@]1(C(N)=O)CC[C@H](n2c(Nc3c(F)cc(Cl)cc3F)nc3cnc(NC4CCOCC4)nc32)CC1` [Example 473, (1r,4r)-4-(8-(4-chloro-2,6-difluorophenylamino)-2-(tetrahydro-2H-pyran-4-ylamino)-9H-purin-9-yl)-1-methylcyclohexanecarboxamide], with > 1000 nM; and `C[C@]1(C(N)=O)CC[C@@H](n2c(Nc3c(Cl)cc(Cl)cc3Cl)nc3cnc(NC4CC(F)(F)C4)nc32)CC1` [Example 580, (1s,4s)-4-(2-(3,3-difluorocyclobutylamino)-8-(2,4,6-trichlorophenylamino)-9H-purin-9-yl)-1-methylcyclohexanecarboxamide], with 250 to 500 nM; and `N#Cc1ccc(Cl)c(Nc2nc3cnc(NC4CCOCC4)nc3n2[C@H]2CC[C@@H](C(N)=O)CC2)c1Cl` [Example 443, (1s,4s)-4-(8-(2,6-dichloro-3-cyanophenylamino)-2-(tetrahydro-2H-pyran-4-ylamino)-9H-purin-9-yl)cyclohexanecarboxamide], with > 1000 nM.

The experiment is the same for the next values; noted with them: Homo sapiens; Lox-IMVI melanoma cell line, anti-proliferative assay; read-out: Activity (IC50 activity level).
Take `NC(=O)[C@H]1CC[C@@H](n2c(Nc3c(F)cc(Cl)cc3Cl)nc3cnc(N[C@@H]4CCCN(Cc5ccccc5)C4)nc32)CC1` [Example 758, (1S,4s)-4-(2-((R)-1-benzylpiperidin-3-ylamino)-8-(2,4-dichloro-6-fluorophenylamino)-9H-purin-9-yl)cyclohexanecarboxamide]: the IC50 is > 1000 nM. On the same count and under the same terms, to `Cc1ccc(S(=O)(=O)N2CCC[C@@H](Nc3ncc4nc(Nc5c(F)cc(F)cc5Cl)n([C@H]5CC[C@@H](C(N)=O)CC5)c4n3)C2)cc1` [Example 787, (1S,4s)-4-(8-(2-chloro-4,6-difluorophenylamino)-2-((R)-1-tosylpiperidin-3-ylamino)-9H-purin-9-yl)cyclohexanecarboxamide] belongs > 1000 nM; to `CC(C)OC(=O)N1CCC[C@@H](Nc2ncc3nc(Nc4c(Cl)cc(C(F)(F)F)cc4Cl)n([C@H]4CC[C@@H](C(N)=O)CC4)c3n2)C1` [Example 770, (R)-isopropyl 3-(9-((1s,4S)-4-carbamoylcyclohexyl)-8-(2,6-dichloro-4-(trifluoromethyl)phenylamino)-9H-purin-2-ylamino)piperidine-1-carboxylate], > 1000 nM. Regarding `C[C@]1(C(N)=O)CC[C@@H](n2c(Nc3c(F)cc(Cl)cc3F)nc3cnc(NC4CCC4)nc32)CC1` [Example 608, (1s,4s)-4-(8-(4-chloro-2,6-difluorophenylamino)-2-(cyclobutylamino)-9H-purin-9-yl)-1-methylcyclohexanecarboxamide], the IC50 was < 250 nM. With `N#Cc1cc(Cl)c(Nc2nc3cnc(N[C@H]4CCC[C@@H](O)C4)nc3n2[C@H]2CC[C@@H](C(N)=O)CC2)c(Cl)c1` [Example 686, (1R,4s)-4-(8-(2,6-dichloro-4-cyanophenylamino)-2-((1S,3R)-3-hydroxycyclohexylamino)-9H-purin-9-yl)cyclohexanecarboxamide], the IC50 fell in the range of 500 to 1000 nM. On the same count and under the same terms, to `C[C@]1(C(N)=O)CC[C@@H](n2c(Nc3c(F)cc(Cl)cc3Cl)nc3cnc(N[C@H]4CCC[C@H](O)C4)nc32)CC1` [Example 612, (1R,4s)-4-(8-(2,4-dichloro-6-fluorophenylamino)-2-((1S,3S)-3-hydroxycyclohexylamino)-9H-purin-9-yl)-1-methylcyclohexanecarboxamide] belongs < 250 nM; to `Cc1ccc(S(=O)(=O)N2CCC[C@@H](Nc3ncc4nc(Nc5c(Cl)cc(F)cc5Cl)n([C@H]5CC[C@@H](C(N)=O)CC5)c4n3)C2)cc1` [Example 794, (1S,4s)-4-(8-(2,6-dichloro-4-fluorophenylamino)-2-((R)-1-tosylpiperidin-3-ylamino)-9H-purin-9-yl)cyclohexanecarboxamide], > 1000 nM. Take `NC(=O)[C@H]1CC[C@@H](n2c(Nc3c(Cl)cc(Cl)cc3Cl)nc3cnc(NC4CCC(c5ncno5)CC4)nc32)CC1` (some centres unmarked) [Example 678, (1s,4s)-4-(2-(4-(1,2,4-oxadiazol-5-yl)cyclohexylamino)-8-(2,4,6-trichlorophenylamino)-9H-purin-9-yl)cyclohexanecarboxamide]: the IC50 was > 1000 nM.

The record behind these values is US11590139B2, “Substituted aminopurine compounds, compositions thereof, and methods of treatment therewith” (Signal Pharmaceuticals, LLC, priority 2014, dated 2023).
